{"source": "patent US20130096370A1", "about": "“COMPOSITIONS AND SYSTEMS FOR THE REGULATION OF GENES” (priority 2002, published 2013)", "system": "p53 in MCF-7 breast cancer cells", "experiment": "Down modulation of endogenous p53 in MCF-7 cells by dox-inducible siRNA lentivectors (Western blot)", "format": "cell-based", "conditions": "dually transduced MCF-7 cells, 5 days in dox, FIG. 7B", "procedure": "To analyze the regulation of GFP a Hela cell clone carrying a single copy of the WPXLGFP provirus (Hela-GFP) was used. For transduction, Hela-GFP, MCF-7 or Hela cells were plated on 24-well plate (20×10^4 cells/well) and after 16 hrs medium containing recombinant lentivectors was added. Following 16 hrs of incubation the cells were washed, split and doxycycline was added to half of the transduced cells at a final concentration of 5 μg/ml. Five days later the cells were harvested and analyzed by FACS.\nCell extracts were prepared in RIPA lysis buffer (25 mM Tris pH 7.5, 1% Triton X-100, 0.5% sodium deoxycholate, 5 mM EDTA, 150 mM NaCl) containing a cocktail of protease inhibitors (Sigma). The protein samples (10 μg) were separated on 4-20% gradient PAGE-SDS gel, electroblotted to polyvinylidene fluoride membranes (Perkin Elmer) and exposed to antibodies against p53 (Santa Cruz Biotechnology), Lamin A/C (Santa Cruz Biotechnology), GFP (Clontech) and actin (Calbiochem). Antibodies conjugated with horseradish peroxidase (Amersham) and enhanced chemiluminescence (ECL; Amersham) was used for detection."}
{"smiles": "C[C@H]1c2cccc(O)c2C(=O)C2=C(O)[C@]3(O)C(=O)C(C(N)=O)=C(O)[C@@H](N(C)C)[C@@H]3[C@@H](O)[C@@H]21", "note": "[doxycycline]", "values": [{"measurement": "dox concentration at which full-blown p53 suppression was achieved", "result": 0.25, "unit": "µg/mL"}, {"measurement": "dox concentration at which p53 downregulation was already apparent", "result": 0.004, "unit": "µg/mL"}]}
